Measurements published in patent US20190031618A1, “BENZIMIDAZOLE DERIVATIVES USEFUL AS CB-1 INVERSE AGONISTS” (Janssen Pharmaceutica NV, priority 2015, published 2019).
pEC50: −log10 of the molar value.

Assays:
[1] = target: Human CB1R (Cannabinoid receptor 1) (Homo sapiens, UniProt P21554); assay: CB-1 in vitro cAMP (HTRF) assay; type: cell-based; settings: HEK cells, cAMP HTRF, 250 nM forskolin; mean where tested more than once; read-out: CB1 HEK_cAMP EC50
Description: (§1) CB1 and CB2 receptors are Gi-coupled GPCR. Activation of CB1 and CB2 receptors results in a decrease in cAMP production. An inverse agonist of the CB1 or CB2 receptor results in the opposite effect, an increase of cAMP production. The principle of this assay is based on HTRF® technology (Homogeneous Time-Resolved Fluorescence). The method is a competitive immunoassay between native cAMP produced by cells and the cAMP labeled with the fluorophore d2. The tracer binding is quantified by a Mab anti-cAMP labeled with Eu3+TBP-NHS Cryptate (supplied as part of the assay kit). The specific signal (i.e. energy transfer) is inversely proportional to the concentration of cAMP in the standard or sample.
Human CB1R (Cannabinoid receptor 1) was stably transfected in HEK-293 cells (DiscoveRx, cat: 93-0200C1). Human CB2R (Cannabinoid receptor 2) was stably transfected in HEK-293 cells (DiscoveRx, cat: 93-0201C1).
One day prior to experiments media was warmed to 37° C. and the cryo-stored cells were thawed in a 37° C. water bath. The cells were then added to media (10× volume) and the mixture was centrifuged at 1000 RPM for 5 min. The supernate was removed and the cells were re-suspended in media. A sample of the cell suspension was evaluated on a Cedex XS automated cell counter (Innovatis Systems) to determine viable cells/ml. Additional media was added to the cells to achieve a final cell density of 4E5 cells/mL. […] Cells were removed from Row P (location of cAMP standards). […] The cell plates were lidded and stored for 15 minutes in a hood, then transferred to an incubator (37° C., 5% CO2, 95% humidity) overnight.
Test compounds (60 μL, 10 mM) were added to Column 1 and 13 (A1 through N1 and A13 through L13). Test compounds were serially diluted 1/3 by transferring and mixing 20 μl sample with 40 μL DMSO.
DMSO (40 μL) was added to wells of 384 well V bottom polystyrene plate: O2 through O11, M14 through M23, N14 through N23, and O14 through O23. […] The control was serially diluted 1/3 by transferring and mixing 20 μl sample with 40 μL DMSO. This process resulted 11 doses per control, 10 mM to 0.5 μM.
Cells plated the day prior to the assay in clear bottom plates were viewed on an inverse microscope to ensure confluency in the range of 60-75%.
A FLEXDROP (Perkin Elmer) was cleaned with ethanol then water, and primed with Buffer 2. A 384 well V bottom polypropylene plate containing d2 labelled cAMP and a second 384 well V bottom polypropylene plate containing anti-cAMP was prepared (50 μl per well). Media as “dumped” from the cell plate and 30 μL Buffer 1 was added to each well using a Multidrop. The content of the cell plate was again “dumped” and 10 μL Buffer 2 was added to each well using a Flexdrop. […] The cell plate was mixed (Speed 6, Lab-Line Instruments Titer Plate Shaker) and centrifuged (1000 RPMs, 1 min). […] The cell plate was again mixed (speed 6) and centrifuged (1000 RPMs, 1 min). The cell plate was incubated for 30 minutes at room temperature (˜27° C.). The contents of row P were removed and the cAMP standard dilutions were added in duplicate to Row P (P1-12 and P13-24). After incubation, 6 μL d2 labelled cAMP and 6 μL of Anti-cAMP were added to all wells of the cell plate using a BioMek FX (Beckman Coulter). The cell plate was again mixed (speed 6) and centrifuged (1000 RPMs, 1 min) and was incubated for 60 minutes in the dark at room Temp (˜27° C.).
After this final incubation, the cell plate was read in HTRF mode (fluorescence at 665 nm and 620 nm) on an Envision plate Reader (Perkin Elmer). The Envision reader outputs a ratio of channel 1/channel 2 fluorescence×10,000 (Normalized signal (NS)). Amount of cAMP in nM was calculated for each well (based on NS) from a cAMP standard curve located on each plate (at P1-12 and P13-24). EC50 values were determined from a 4-point fit (Hill equation) of a single 11-point compound dosing. Hill slope was fixed at 1.0.

[2] = target: Human CB2R (Cannabinoid receptor 2) (Homo sapiens, UniProt P34972); assay: CB-2 in vitro cAMP (HTRF) assay; type: cell-based; settings: HEK cells, cAMP HTRF, 250 nM forskolin; mean where tested more than once; read-out: CB2 HEK_cAMP EC50
Description: as §1
Human CB1R (Cannabinoid receptor 1) was stably transfected in HEK-293 cells (DiscoveRx, cat: 93-0200C1). Human CB2R (Cannabinoid receptor 2) was stably transfected in HEK-293 cells (DiscoveRx, cat: 93-0201C1). Cell cultures were maintained in media: DMEM (Invitrogen Cat#12430-054) supplemented with 10% HI FBS (Invitrogen Cat#16140-071), 1% L-glutamine (Invitrogen Cat#25030-081), 0.2 mg/ml Hygromycin B (Invitrogen Cat#10687-010), 600 μg/mL G418 (Invitrogen Cat#10131-035), and 1× Penn/Strep (Invitrogen 15140-122). After cell expansion, aliquots were cryo-stored in media containing 5% DMSO (Pierce Cat#20684).
One day prior to experiments media was warmed to 37° C. and the cryo-stored cells were thawed in a 37° C. water bath. The cells were then added to media (10× volume) and the mixture was centrifuged at 1000 RPM for 5 min. The supernate was removed and the cells were re-suspended in media. A sample of the cell suspension was evaluated on a Cedex XS automated cell counter (Innovatis Systems) to determine viable cells/ml. Additional media was added to the cells to achieve a final cell density of 4E5 cells/mL. The cells were then plated into 384 well PDL white solid bottom plates (Greiner, Cat#781945) at 20 μL per well using a Multidrop (Thermo Scientific). Cells were removed from Row P (location of cAMP standards). Two columns of cells were plated into a clear bottom 384 well PDL coated plate (Greiner, Cat#781944) to view confluence the day of the assay. The cell plates were lidded and stored for 15 minutes in a hood, then transferred to an incubator (37° C., 5% CO2, 95% humidity) overnight.
DMSO was added to all wells of 384 well V bottom polystyrene plate (Greiner, Cat#781280) except to columns 1 and 13, rows O and P and wells M13-M23 and N13-N23. Test compounds (60 μL, 10 mM) were added to Column 1 and 13 (A1 through N1 and A13 through L13). Test compounds were serially diluted 1/3 by transferring and mixing 20 μl sample with 40 μL DMSO.
DMSO (40 μL) was added to wells of 384 well V bottom polystyrene plate: O2 through O11, M14 through M23, N14 through N23, and O14 through O23. AM630 (also known as [6-iodo-2-methyl-1-[2-(4-morpholinyl)ethyl]-1H-indol-3-yl](4-methoxyphenyl)-methanone, Cayman Chemical, Cat#10006974) (60 μL, 10 mM) was added to O1; and 1-(2,4-dichlorophenyl)-7-[(4-fluorophenyl)methylene]-4,5,6,7-tetrahydro-N-1-piperidinyl-1H-benzimidazole-3-carboxamide (60 μL, 10 mM) was added to N13. The control was serially diluted 1/3 by transferring and mixing 20 μl sample with 40 μL DMSO. This process resulted 11 doses per control, 10 mM to […].
Cells plated the day prior to the assay in clear bottom plates were viewed on an inverse microscope to ensure confluency in the range of 60-75%. […]

Human CB1R (Cannabinoid receptor 1), sequence (P21554 whole entry): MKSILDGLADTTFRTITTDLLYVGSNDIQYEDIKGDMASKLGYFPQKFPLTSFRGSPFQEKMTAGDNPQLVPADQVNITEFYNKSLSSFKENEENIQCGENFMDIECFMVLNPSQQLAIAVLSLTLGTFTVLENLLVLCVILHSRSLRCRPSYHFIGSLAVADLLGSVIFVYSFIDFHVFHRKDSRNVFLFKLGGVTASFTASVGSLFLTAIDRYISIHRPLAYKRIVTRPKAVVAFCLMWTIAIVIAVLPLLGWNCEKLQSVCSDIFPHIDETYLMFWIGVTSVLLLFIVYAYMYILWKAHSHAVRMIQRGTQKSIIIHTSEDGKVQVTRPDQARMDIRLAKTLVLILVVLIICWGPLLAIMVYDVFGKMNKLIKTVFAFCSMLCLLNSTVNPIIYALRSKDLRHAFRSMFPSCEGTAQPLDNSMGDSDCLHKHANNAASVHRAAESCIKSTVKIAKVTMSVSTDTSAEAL
Human CB2R (Cannabinoid receptor 2), sequence (P34972 whole entry): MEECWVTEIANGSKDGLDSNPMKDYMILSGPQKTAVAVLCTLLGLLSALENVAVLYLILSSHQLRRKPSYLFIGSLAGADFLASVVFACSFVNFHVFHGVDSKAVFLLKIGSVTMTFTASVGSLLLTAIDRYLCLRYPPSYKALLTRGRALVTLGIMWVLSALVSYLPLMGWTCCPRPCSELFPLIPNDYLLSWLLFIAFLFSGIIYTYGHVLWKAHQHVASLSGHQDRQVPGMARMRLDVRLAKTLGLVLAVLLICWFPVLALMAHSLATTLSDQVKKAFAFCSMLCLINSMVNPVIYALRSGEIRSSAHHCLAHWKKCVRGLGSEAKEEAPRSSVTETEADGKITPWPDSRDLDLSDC

| SMILES | pEC50 [1] | pEC50 [2] |
| --- | --- | --- |
| O=C(O)c1ccc(-c2ccc(CCn3c(C4CC4)nc4ccc(C(c5ccc(Cl)cc5)c5ccc(Cl)cc5)cc43)cc2)cc1 [Example 25] | 5.78 | < 5.00 |
| COC(=O)c1cccc(OCCn2c(C3CC3)nc3ccc(C(c4ccc(Cl)cc4)c4ccc(Cl)cc4)cc32)c1 [Example 26] | 6.99 | 5.48 |
| Clc1ccc(C(c2ccc(Cl)cc2)c2ccc3nc(C4CC4)n(CCc4ccc(Br)cc4)c3c2)cc1 [Example 27] | 7.96 | < 5.00 |
| Oc1cccc(N[C@H]2CC[C@H](n3c(C4CC4)nc4ccc(C(c5ccc(Cl)cc5)c5ccc(Cl)cc5)cc43)CC2)c1 [Example 28] | 7.67 | < 5.00 |
| O=C(O)c1ccc(N[C@H]2CC[C@H](n3c(C4CC4)nc4ccc(C(c5ccc(Cl)cc5)c5ccc(Cl)cc5)cc43)CC2)cc1 [Example 30] | 7.40 | 5.79 |
| O=C(O)c1cccc(N[C@H]2CC[C@H](n3c(C4CC4)nc4ccc(C(c5ccc(Cl)cc5)c5ccc(Cl)cc5)cc43)CC2)c1 [Example 31] | 6.82 | 5.52 |
| O=C(O)c1ccc(N[C@H]2CC[C@@H](n3c(C4CC4)nc4ccc(C(c5ccc(Cl)cc5)c5ccc(Cl)cc5)cc43)CC2)cc1 [Example 32] | 7.40 | 5.67 |
| COC(=O)c1ccc(OCCn2c(C3CC3)nc3ccc(C(c4ccc(Cl)cc4)c4ccc(Cl)cc4)cc32)nc1 [Example 34] | 7.43 | 5.17 |
| O=C(O)c1ccc(OCCn2c(C3CC3)nc3ccc(C(c4ccc(Cl)cc4)c4ccc(Cl)cc4)cc32)cc1 [Example 35] | 5.48 | 5.36 |
| COC(=O)c1ccc(OCCn2c(C3CC3)nc3ccc(C(c4ccc(Cl)cc4)c4ccc(Cl)cc4)cc32)cc1 [Example 36] | 7.07 | 6.06 |
| Oc1ccc(CCn2c(C3CC3)nc3ccc(C(c4ccc(Cl)cc4)c4ccc(Cl)cc4)cc32)cc1 [Example 37] | 7.06 | 5.14 |
| O=C(O)c1ccc(CCn2c(C3CC3)nc3ccc(C(c4ccc(Cl)cc4)c4ccc(Cl)cc4)cc32)cc1 [Example 38] | 5.37 | 5.77 |
| O=C(O)c1cccc(NC2CCC(n3c(C4CC4)nc4ccc(C(c5ccc(Cl)cc5)c5ccc(Cl)cc5)cc43)CC2)c1 (centres unmarked) [Example 40] | 6.98 | 5.29 |
| CC(C)(C)OC(=O)N1CCC(n2c(C3CC3)nc3ccc(C(O)(c4ccc(Cl)cc4)c4ccc(Cl)cc4)cc32)CC1 [Example 41] | 7.51 | < 4.38 |
| O=C(O)c1ccc(S(=O)(=O)N[C@H]2CC[C@@H](n3c(C4CC4)nc4ccc(C(c5ccc(Cl)cc5)c5ccc(Cl)cc5)cc43)CC2)cc1 [Example 42] | 7.04 | 5.06 |
| O=C(O)c1cccc(S(=O)(=O)N[C@H]2CC[C@@H](n3c(C4CC4)nc4ccc(C(c5ccc(Cl)cc5)c5ccc(Cl)cc5)cc43)CC2)c1 [Example 43] | 6.95 | 4.92 |
| O=C(O)c1cccc(OCCN2CCC(n3c(C4CC4)nc4ccc(C(c5ccc(Cl)cc5)c5ccc(Cl)cc5)cc43)CC2)c1 [Example 44] | 7.84 | 5.61 |
| O=S(=O)(CCN1CCNCC1)N1CCC(n2c(C3CC3)nc3ccc(C(c4ccc(Cl)cc4)c4ccc(Cl)cc4)cc32)CC1 [Example 45] | 6.23 | < 4.38 |
| NCCS(=O)(=O)N1CCC(n2c(C3CC3)nc3ccc(C(c4ccc(Cl)cc4)c4ccc(Cl)cc4)cc32)CC1 [Example 46] | 6.35 | < 4.38 |
| CCC(c1cccc(C(=O)O)c1)N1CCC(n2c(C3CC3)nc3ccc(C(c4ccc(Cl)cc4)c4ccc(Cl)cc4)cc32)CC1 (centres unmarked) [Example 49] | 8.07 | 5.36 |
| O=C(Nc1ccccc1)N1CCC(n2c(C3CC3)nc3ccc(C(c4ccc(Cl)cc4)c4ccc(Cl)cc4)cc32)CC1 [Example 50] | 7.32 | < 5.00 |
| Nc1cccc(S(=O)(=O)N2CCC(n3c(C4CC4)nc4ccc(C(c5ccc(Cl)cc5)c5ccc(Cl)cc5)cc43)CC2)c1 [Example 52] | 8.04 | < 5.00 |
| O=S(=O)(c1ccc(CO)o1)N1CCC(n2c(C3CC3)nc3ccc(C(c4ccc(Cl)cc4)c4ccc(Cl)cc4)cc32)CC1 [Example 55] | 7.91 | 5.56 |
| CC(c1cccc(O)c1)N1CCC(n2c(C3CC3)nc3ccc(C(c4ccc(Cl)cc4)c4ccc(Cl)cc4)cc32)CC1 (centres unmarked) [Example 56] | 7.71 | < 5.00 |
| CC(c1cc(C(=O)O)ccn1)N1CCC(n2c(C3CC3)nc3ccc(C(c4ccc(Cl)cc4)c4ccc(Cl)cc4)cc32)CC1 (centres unmarked) [Example 59] | 8.42 | < 4.68 |
| O=C(Oc1ccccc1)N1CCC(n2c(C3CC3)nc3ccc(C(c4ccc(Cl)cc4)c4ccc(Cl)cc4)cc32)CC1 [Example 61] | 7.72 | < 4.68 |
| O=C(O)CN1CCC(n2c(C3CC3)nc3ccc(C(c4ccc(Cl)cc4)c4ccc(Cl)cc4)cc32)CC1 [Example 63] | < 5.00 | < 4.68 |
| COC(=O)CN1CCC(n2c(C3CC3)nc3ccc(C(c4ccc(Cl)cc4)c4ccc(Cl)cc4)cc32)CC1 [Example 64] | 8.59 | 5.63 |
